Measurements published in ChEMBL document CHEMBL1122424, “S-carbobenzoxyglutathione: a competitive inhibitor of mammalian glyoxalase II” (J Med Chem, 1983).
Active and inactive are the calls of the source. The rule behind the calls is not given here.

Experiments:
[1] = test system: Lactoylglutathione lyase (Ovis aries); assay: […] inhibitory activity against glyoxalase I in sheep liver; no inhibition
[2] = molecular target: Lactoylglutathione lyase (Mus musculus) (UniProt Q9CPU0); assay: […] inhibitory activity against glyoxalase I in mouse liver; no inhibition; assay type: functional
Lactoylglutathione lyase (Mus musculus), sequence (Q9CPU0 2-184 limits assumed): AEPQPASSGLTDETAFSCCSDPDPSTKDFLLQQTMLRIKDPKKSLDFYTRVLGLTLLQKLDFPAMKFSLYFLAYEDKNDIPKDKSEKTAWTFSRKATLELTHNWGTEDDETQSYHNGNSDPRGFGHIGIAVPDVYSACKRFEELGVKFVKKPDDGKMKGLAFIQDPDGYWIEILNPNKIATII

[3] = molecular target: T1, Lactoylglutathione lyase (Rattus norvegicus) (UniProt Q6P7Q4); assay: In vivo inhibitory activity against glyoxalase I in rat liver; assay type: functional; conditions: concentration not given here
T1 sequence (whole entry): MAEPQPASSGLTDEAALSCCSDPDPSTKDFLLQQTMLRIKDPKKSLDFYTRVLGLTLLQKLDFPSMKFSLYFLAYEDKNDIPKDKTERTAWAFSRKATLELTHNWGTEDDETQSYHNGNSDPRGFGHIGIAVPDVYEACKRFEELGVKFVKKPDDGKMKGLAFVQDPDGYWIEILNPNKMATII

[4] = molecular target: T1, Lactoylglutathione lyase (Rattus norvegicus); assay: […] inhibitory activity against glyoxalase I in rat liver; no inhibition; assay type: functional
[5] = molecular target: Hydroxyacylglutathione hydrolase, mitochondrial (Rattus norvegicus) (UniProt O35952); assay: (§1) […] inhibitory activity against glyoxalase II in rat liver; assay type: functional; conditions: concentration not given here
[6] = molecular target: Hydroxyacylglutathione hydrolase, mitochondrial (Rattus norvegicus, UniProt O35952); assay: as §1

Activity [1]: inactive
Activity [2]: inactive
inhibition [3]: < 10%
Activity [4]: inactive
inhibition [5]: > 50%
Ki [6]: 65 µM
SMILES: N[C@@H](CCC(=O)N[C@@H](CSC(=O)OCc1ccccc1)C(=O)NCC(=O)O)C(=O)O
